Test results as given in patent US9035048B2, “Tetrahydrotriazine compounds for treating diseases associated with AMPK activity” (POXEL, priority 2008, dated 2015).
“Also recorded” adds a separate entry of the source.

Assays:
[1] = ob/ob and db/db mice, 8 day administration; cited from earlier work
AMPK [2] = experiment: AMPK activation in hepatocyte cells; assay type: cell-based; settings: different doses, FIG. 1
From the text: The AMPK activation in hepatocytes is given in the gel electrophoresis pictures. The supplemental diagram visualizes the degree of AMPK activation in hepatocytes quantitatively.

synaptopodin (G1D4) = experiment: Glomerular synaptopodin (G1D4) fraction in the kidney of ZDF rats; assay type: in vivo, rat; settings: ZDF fatty rats, age 19 weeks; for Glomerular synaptopodin (G1D4) fraction, Positive Area (%): 2 × 25 mg/kg/d p.o., mean ± SEM
Procedure: Synaptopodin (G1D4) was detected with a monoclonal mouse IgG antibody (#61094, Progen). For each rat, 40 glomeruli out of two consecutive sections were selected at random. The synaptopodin (G1D4) positive area in the mesangium was measured with the Ariol SL-50 automated microscope (Applied Imaging Int. Ltd.) scanning sections at X20 (scale x/y: 1 pixel=0.36×0.36 μm^2) and setting a circular measure field of 2400 μm^2 in the centre of the glomerulus. The positive labeled area of synaptopodin (G1D4) was calculated as percentage of tissue area in the measure field. For each animal, the mean out of 40 glomeruli was calculated. Statistical comparisons were performed by unpaired Mann-Whitney-test. Data are mean±SEM.
The antibody clone G1D4 recognized differentiated podocytes (glomerular visceral epithelial cells).

[3] = system: ROS production linked to the reverse electron flux through complex I; experiment: ROS production in rat liver after oral administration; assay type: in vivo; settings: fasted Wistar rats, 50 mg/kg/day in drinking water for at least 10 days, succinate alone or with glutamate/malate
Procedure: (§1) The efficacy of 5,6-dihydro-4-dimethylamino-2-imino-6-methyl-1,3,5-triazine was tested if once administrated (50 mg/kg/day) to drinking water of fasted Wistar rats for at least 10 days. This approach was more physiological than subcutaneous injection at elevated dose. […] The effect was observed both in rat liver (FIG. 4) and in human micro-vascular endothelial cells (HMEC; Table 2).

[4] = system: human micro-vascular endothelial cells (HMEC-1); experiment: ROS production in HMEC-1; assay type: cell-based
Procedure: as §1

AMPK [5] = experiment: AMPK activation in muscle cells; assay type: cell-based; settings: different doses, FIG. 2

AMPK activation in hepatocytes (AMPK [2])	SMILES	reduction of blood glucose [1] [%]	glomerular fraction of synaptopodin (effect of treatment in words) (synaptopodin (G1D4))	Glomerular synaptopodin (G1D4) fraction, Positive Area (%) (synaptopodin (G1D4))	ROS production linked to the reverse electron flux through complex I [3]	ROS production, H2O2 ([4]; substrate GMS, additions: None)	ROS production, H2O2 ([4]; substrate GMS, additions: Rot + antimycin A (AA))	ROS production, H2O2 ([4]; substrate GMS, additions: Rotenone (Rot))	ROS production, H2O2 ([4]; substrate Glutamate + Malate (GM), additions: None)	ROS production, H2O2 ([4]; substrate Glutamate + Malate (GM), additions: Rot + antimycin A (AA))	ROS production, H2O2 ([4]; substrate Glutamate + Malate (GM), additions: Rotenone (Rot))	ROS production, H2O2 ([4]; substrate Succinate (S), additions: None)	ROS production, H2O2 ([4]; substrate Succinate (S), additions: Rot + antimycin A (AA))	ROS production, H2O2 ([4]; substrate Succinate (S), additions: Rotenone (Rot))	AMPK activity in muscle cells (AMPK [5])
	NC(=O)c1ncn([C@@H]2O[C@H](CO)[C@@H](O)[C@H]2O)c1N [AICAR, 5-aminoimidazole-4-caboxamide-1beta-riboside]	35													
significant activation of AMPK	CC1NC(=N)N=C(N(C)C)N1 (centres unmarked) [EMD008, 5,6-dihydro-4-dimethylamino-2-imino-6-methyl-1,3,5-triazine]		moderately increased	45 ± 3	time-dependently inhibited the ROS production	15.7 ± 1.4 pmol/min/10^7 HMEC-1 cells	18.6 ± 1.3 pmol/min/10^7 HMEC-1 cells	6.9 ± 1.1 pmol/min/10^7 HMEC-1 cells	28.4 ± 2.2 pmol/min/10^7 HMEC-1 cells	51.4 ± 8.7 pmol/min/10^7 HMEC-1 cells	37.5 ± 1.5 pmol/min/10^7 HMEC-1 cells	14.5 ± 1.3 pmol/min/10^7 HMEC-1 cells	19.1 ± 3.2 pmol/min/10^7 HMEC-1 cells	11.4 ± 2.7 pmol/min/10^7 HMEC-1 cells	significantly increased AMPK activity; also recorded: dose dependent and even stronger than metformin's effect
	CN(C)C(=N)NC(=N)N [Metformin, reference compound]		no effect	38 ± 4											
